# Assay: Release of fluorometholone in the rabbit eye, measured in aqueous humor
# Type: in vivo
# Details: measured by fluorometholone contained in the aqueous humor
# Procedure: The viscous gels that result upon administration of the aqueous suspensions of this invention to the eye have residence times in the eye ranging from about 2 to about 12 hours, e.g., from about 3 to about 6 hours. The active ingredients contained in these ophthalmically acceptable vehicles are released from the gels at rates that depend on such factors as the active ingredient itself and its physical form, the extent of drug loading and the pH of the system, as well as on any drug delivery adjuvants, such as ion exchange resins compatible with the ocular surface, which can also be present.
smiles,measurement,value
CC(=O)[C@@]1(O)CC[C@H]2[C@@H]3C[C@H](C)C4=CC(=O)C=C[C@]4(C)[C@@]3(F)[C@@H](O)C[C@@]21C [fluorometholone],Release rates in the rabbit eye,in excess of four hours
